What was measured:
Assay type in all cases: physicochemical
[1] = Partition coefficient (logP); conditions: octanol/water
[2] = Partition coefficient of octanol and water was determined
[3] = True partition coefficient corrected for ionization was determined; conditions: octanol/water

Compound | logP [1] | Poct [2] | pKa [3]
CN(C)CCc1c[nH]c2ccc(O)cc12 [BUFOTENINE] | 1.19 | 0.16 | –
CN(C)CCc1c[nH]c2cccc(O)c12 [PSILOCIN] | 1.45 | 0.68 | 3.3

From ChEMBL document CHEMBL1121785, “Comparison of solution conformational preferences for the hallucinogens bufotenin and psilocin using 360-MHz proton NMR spectroscopy” (J Med Chem, 1981)
